Tested on: Aurantiochytrium acetophilum HS399
Assay: Single vs two-stage fermentation with propionic acid (Example 12)
Assay type: cell-based
Conditions: propionic acid fed
Text: Further, in this implementation, during the lipid phase, no additional nitrogen is fed, and the cell accumulated the lipids. In the single stage mode, half of the nitrogen (2.5 g/L NH3) can be batch fed, while the other half (2.5 g/L NH3) can be fed along with the glucose until the end of the fermentation. In this implementation, both treatments receive substantially the same nutrients; however, the single stage mode grows and accumulates lipids in a coordinated way throughout the fermentation. The single stage system can be characterized by an early lipid accumulation. […] Each of the four treatments can be cultured in duplicate (n=2) fermenters. […] As illustrated, propionic acid slows down the growth on both systems, but the two-stage system provides a better growth rate than the single stage system in the presence of propionate. […] This implementation illustrates that the traditional two stage approach to lipid accumulation may be preferable to produce OCFAs.

Question: With `CCC(=O)O` [Propionate, propionic acid] as the compound, how does the Productivity (single stage, 96 h) read?
Answer: Its Productivity is 20.7 g/L/day.

Question: And the “Biomass Yield” value (single stage, batch time 96 h)?
Answer: The value was 82.5 g/L.

Question: What about the Productivity (two stage, 89 h) of the same compound?
Answer: Its Productivity is 34.1 g/L/day.

Question: What about the “Biomass Yield” value (two stage, batch time 89 h) of the same compound?
Answer: The value was 125.8 g/L.

Reference: patent US12285034B2, “Human and non-human animal use of microbial anaplerotic oil” (HELIAE DEVELOPMENT, LLC, priority 2017, dated 2025)
